Measurements taken from US10723723B2, “Substituted bicycle heterocyclic derivatives useful as ROMK channel inhibitors” (BRISTOL-MYERS SQUIBB COMPANY, priority 2016, dated 2020).

What follows are compounds tested against hROMK (human Kir1.1) (Homo sapiens (Human), UniProt P48048) (assay: Thallium Flux Assay (FluxOR, CHO T-Rex hROMK stable cell line)). Settings: CHO T-Rex hROMK cells, 10-point concentration response curve; read-out: Human ROMK TH Flux IC50.
hROMK (human Kir1.1), sequence (P48048 whole entry): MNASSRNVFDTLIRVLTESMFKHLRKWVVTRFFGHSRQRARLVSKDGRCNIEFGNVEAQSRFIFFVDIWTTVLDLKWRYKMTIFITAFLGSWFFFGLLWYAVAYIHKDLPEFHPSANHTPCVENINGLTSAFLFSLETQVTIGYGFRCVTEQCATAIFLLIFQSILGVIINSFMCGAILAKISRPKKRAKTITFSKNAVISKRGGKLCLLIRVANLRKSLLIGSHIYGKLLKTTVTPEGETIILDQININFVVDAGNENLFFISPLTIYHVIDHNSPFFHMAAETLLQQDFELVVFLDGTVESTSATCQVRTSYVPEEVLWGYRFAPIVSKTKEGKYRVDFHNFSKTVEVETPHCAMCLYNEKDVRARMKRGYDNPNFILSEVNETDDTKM
Format: cell-based
Procedure: Solutions and reagents: Thallium flux assay was performed using FluxOR kit (F10017, Life Technologies). Loading buffer, assay buffer and stimulus buffer were prepared using kit components.
To prepare 10 ml of loading buffer: 10 μl of FluxOR dye (reconstituted in DMSO) was first added to 100 μl of powerload concentrate and this mix along with 100 μl of Probenicid (100×) was then added to 9.79 ml of HBSS. […] Stimulus buffer was composed of 15 mM Tl2SO4, 0.75 mM K2SO4 in FluxOR chloride free buffer (diluted to 1× using deionized water). The final concentration of Tl2SO4 and K2SO4 in the assay plate was 3 mM and 0.15 mM, respectively.
Plating and induction of cells: The CHO T-Rex hROMK (human Kir1.1) stable cell line was maintained in Ham's F12 media supplemented with 10% FBS, 1% Penicillin-Streptomycin, 500 μg/ml Zeocin and 10 μg/ml Blasticidin at 37° C. in a 5% CO2 incubator. […] The cell suspension was centrifuged at 1200 rpm for 5 min. After discarding the supernatant, the cells were resuspended in fresh growth media and cell concentration was determined using a hemocytometer. […] The assay plate was kept at 37° C. in a 5% CO2 incubator.
Assay protocol: On the day of experiment, media was removed and loading buffer was added (30 μl/well) to the assay plate. The cells were incubated in the loading buffer for 30 minutes at 37° C. The loading buffer was then replaced by assay buffer (30 μl/well) followed by addition of test compounds or controls. […] Each well was read for 90 sec at 2 sec interval and the stimulus buffer was added after 20 seconds of baseline recording. The final DMSO concentration was either 0.5 or 1% in the assay plate. Positive and negative controls were defined by addition of DMSO or 3 μM of a standard ROMK inhibitor, respectively, to the wells instead of a test compound.
A 10-point concentration response curve was used to estimate the IC50 value of test compounds.
For `Cc1c([C@@H](O)CNCc2ccc(-c3cnn(C)c3)nc2)ccc2c1COC2=O` [Example 124, (R)-5-(1-hydroxy-2-(((6-(1-methyl-1H-pyrazol-4-yl)pyridin-3-y)methyl)amino)ethyl)-4-methylisobenzofuran-1(3H)-one], the IC50 was 0.26 µM. `Cc1cc(C#N)cnc1-n1cc(CNC[C@H](O)c2ccc3c(c2C)COC3=O)cn1` [Example 78, (R)-6-(4-(((2-hydroxy-2-(4-methyl-1-oxo-1,3-dihydroisobenzofuran-5-yl)ethyl)amino)methyl)-1H-pyrazol-1-yl)-5-methylnicotinonitrile] gave an IC50 of 0.44 µM. For `Cc1c([C@@H](O)CNCc2cncc(-c3ccc4oc(=O)n(C)c4c3)c2)ccc2c1COC2=O` [Example 120, (R)-5-(5-(((2-hydroxy-2-(4-methyl-1-oxo-1,3-dihydroisobenzofuran-5-yl)ethyl)amino)methyl)pyridin-3-yl)-3-methylbenzo[d]oxazol-2(3H)-one], the IC50 was 0.12 µM. Compound `Cc1c([C@@H](O)CNCc2cnn(-c3cnccn3)c2)ccc2c1COC2=O` [Example 165, (R)-5-(1-hydroxy-2-(((1-(pyrazin-2-yl)-1H-pyrazol-4-yl)methyl)amino)ethyl)-4-methylisobenzofuran-1(3H)-one] has an IC50 of 0.47 µM. `Cc1c([C@@H](O)CN(CCCC(F)(F)F)Cc2ccc(-c3ccc4oc(=O)n(C)c4c3)nc2)ccc2c1COC2=O` [Example 163, (R)-5-(5-(((2-hydroxy-2-(4-methyl-1-oxo-1,3-dihydroisobenzofuran-5-yl)ethyl)(4,4,4-trifluorobutyl)amino)meth-yl)pyridin-2-yl)-3-methylbenzo[d]oxazol-2(3H)-one] showed an IC50 of 0.26 µM. Work on `Cc1c([C@@H](O)CNCc2cnn(-c3cccc(N4CCOC4=O)c3)c2)ccc2c1COC2=O` [Example 158, (R)-3-(3-(4-(((2-hydroxy-2-(4-methyl-1-oxo-1,3-dihydroisobenzofuran-5-yl)ethyl)amino)methyl)-1H-pyrazol-1-yl)phenyl)oxazolidin-2-one] yielded an IC50 of 0.39 µM. For `Cc1cc(-n2cc(CNCC(O)c3ccc4c(c3C)C(C)OC4=O)cn2)ncc1C#N` (single isomer, unassigned) [Example 172-II, 6-(4-(((2-(3,4-dimethyl-1-oxo-1,3-dihydroisobenzofuran-5-yl)-2-hydroxyethyl)amino)meth-yl)-1H-pyrazol-1-yl)-4-methylnicotinonitrile], the IC50 was 1.8 µM. In the case of `Cc1c([C@@H](O)CNCc2ccc(-c3ccc(=O)n(C)n3)nc2)ccc2c1COC2=O` [Example 122, (R)-6-(5-(((2-hydroxy-2-(4-methyl-1-oxo-1,3-dihydroisobenzofuran-5-yl)ethyl)amino)methyl)pyridin-2-yl)-2-methylpyridazin-3(2H)-one], the IC50 is reported as 0.17 µM. `Cc1cc(-n2cc(CNC[C@@H](c3ccc4c(c3C)COC4=O)N(C)C)cn2)ncc1C#N` [Example 174, (R)-6-(4-(((2-(dimethylamino)-2-(4-methyl-1-oxo-1,3-dihydroisobenzofuran-5-yl)ethyl)amino)methyl)-1H-pyrazol-1-yl)-4-methylnicotinonitrile] showed an IC50 of 11.6 µM. `Cc1c([C@@H](O)CNCc2cnn(-c3ccc(-c4noc(=O)n4C)cn3)c2)ccc2c1COC2=O` [Example 171, (R)-3-(6-(4-(((2-hydroxy-2-(4-methyl-1-oxo-1,3-dihydroisobenzofuran-5-yl)ethyl)amino)methyl)-1H-pyrazol-1-yl)pyridin-3-yl)-4-methyl-1,2,4-oxadiazol-5(4H)-one] was tested, and the IC50 was 1 µM. Compound `Cc1c([C@@H](O)CNCc2cnn(-c3cc(N4CCCC4)c(C#N)cn3)c2)ccc2c1COC2=O` [Example 119, (R)-6-(4-(((2-hydroxy-2-(4-methyl-1-oxo-1,3-dihydroisobenzofuran-5-yl)ethyl)amino)methyl)-1H-pyrazol-1-yl)-4-(pyrrolidin-1-yl)nicotinonitrile] has an IC50 of 0.091 µM. Compound `CCc1nn(-c2ccc(CNC[C@H](O)c3ccc4c(c3C)COC4=O)cn2)cc1C#N` [Example 103, (R)-3-ethyl-1-(5-(((2-hydroxy-2-(4-methyl-1-oxo-1,3-dihydroisobenzofuran-5-yl)ethyl)amino)methyl)pyridin-2-yl)-1H-pyrazole-4-carbonitrile] has an IC50 of 0.0552 µM. `COc1cc(-c2ncc(CNC[C@H](O)c3ccc4c(c3C)COC4=O)s2)ncc1C#N` [Example 129, (R)-6-(5-(((2-hydroxy-2-(4-methyl-1-oxo-1,3-dihydroisobenzofuran-5-yl)ethyl)amino)methyl)thiazol-2-yl)-4-methoxynicotinonitrile] was tested, and the IC50 was 0.008 µM. Work on `Cc1cc(-n2cc(CNC[C@H](O)c3ccc4c(c3C)COC4=O)c3ncccc32)ncc1C#N` [Example 168, (R)-6-(3-(((2-hydroxy-2-(4-methyl-1-oxo-1,3-dihydroisobenzofuran-5-yl)ethyl)amino)methyl)-1H-pyrrolo[3,2-b]pyridin-1-yl)-4-methylnicotinonitrile] yielded an IC50 of 0.12 µM. `Cc1cn(-c2cnc(CNC[C@H](O)c3ccc4c(c3C)COC4=O)cn2)cn1` [Example 141, (R)-5-(1-hydroxy-2-(((5-(4-methyl-1H-imidazol-1-yl)pyrazin-2-yl)methyl)amino)ethyl)-4-methylisobenzofuran-1(3H)-one] showed an IC50 of 0.29 µM. With `Cc1cn(-c2ncc(CNC[C@H](O)c3ccc4c(c3C)COC4=O)cc2F)cn1` (single isomer, unassigned) [Example 83] the IC50 was 0.046 µM. `Cc1cc(-n2cc(CNCC(C)(O)c3ccc4c(c3C)COC4=O)cn2)ncc1C#N` (single isomer, unassigned) [Example 170-I, 6-(4-(((2-hydroxy-2-(4-methyl-1-oxo-1,3-dihydroisobenzofuran-5-yl)propyl)amino)methyl)-1H-pyrazol-1-yl)-4-methylnicotinonitrile] gave an IC50 of 0.16 µM. `Cc1c([C@@H](O)CNCc2ccc(-n3cc(C(N)=O)cn3)nc2)ccc2c1COC2=O` [Example 154, (R)-1-(5-(((2-hydroxy-2-(4-methyl-1-oxo-1,3-dihydroisobenzofuran-5-yl)ethyl)amino)methyl)pyridin-2-yl)-1H-pyrazole-4-carboxamide] showed an IC50 of 1 µM. Work on `Cc1cc(-n2cc(CNC[C@H](NC(=O)CO)c3ccc4c(c3C)COC4=O)cn2)ncc1C#N` [Example 63, (R)-N-(2-(((1-(5-cyano-4-methylpyridin-2-yl)-1H-pyrazol-4-yl)methyl)amino)-1-(4-methyl-1-oxo-1,3-dihydroisobenzofuran-5-yl)ethyl)-2-hydroxyacetamide] yielded an IC50 of 0.13 µM. With `Cc1c(C(CO)N(C)Cc2cnc(-n3ncc4c(C#N)cccc43)nc2)ccc2c1COC2=O` (stereo not drawn) [Example 2-I] the IC50 was 1.9 µM. `Cc1c(C(O)CN(C)Cc2cnc(-n3ncc4c(C#N)cccc43)nc2)ccc2c1COC2=O` (single isomer, unassigned) [Example 18-I, 1-(5-(((2-hydroxy-2-(4-methyl-1-oxo-1,3-dihydroisobenzofuran-5-yl)ethyl)(methyl)amino)methyl)pyrimidin-2-yl)-1H-indazole-4-carbonitrile] gave an IC50 of 0.23 µM. Compound `Cc1c(C(O)CN(C)Cc2ccc(-n3ccc4c(C#N)cccc43)cc2)ccc2c1COC2=O` (single isomer, unassigned) [Example 28-II, 1-(4-(((2-hydroxy-2-(4-methyl-1-oxo-1,3-dihydroisobenzofuran-5-yl)ethyl)(methyl)amino)methyl)phenyl)-1H-indole-4-carbonitrile] has an IC50 of 0.39 µM. With `Cc1cc(-n2cc(CNCC(O)c3ccc4c(c3C)C(C)OC4=O)cn2)ncc1C#N` (single isomer, unassigned) [Example 172-I, 6-(4-(((2-(3,4-dimethyl-1-oxo-1,3-dihydroisobenzofuran-5-yl)-2-hydroxyethyl)amino)meth-yl)-1H-pyrazol-1-yl)-4-methylnicotinonitrile] the IC50 was 0.85 µM. `Cc1c([C@H](CNCc2cnn(-c3ccc4oc(=O)n(C)c4c3)c2)OC(=O)[C@H](N)C(C)C)ccc2c1COC2=O` [Example 44, (R)-1-(4-methyl-1-oxo-1,3-dihydroisobenzofuran-5-yl)-2-(((1-(3-methyl-2-oxo-2,3-dihydrobenzo[d]oxazol-5-yl)-1H-pyrazol-4-yl)methyl)amino)ethyl D-valinate] showed an IC50 of 0.14 µM. In the case of `Cc1c([C@@H](O)CNCc2cnn(-c3ccc4nncn4n3)c2)ccc2c1COC2=O` [Example 79, (R)-5-(2-(((1-([1,2,4]triazolo[4,3-b]pyridazin-6-yl)-1H-pyrazol-4-yl)methyl)amino)-1-hydroxyethyl)-4-methylisobenzofuran-1(3H)-one], the IC50 is reported as 0.53 µM. Work on `CN(Cc1ccc(-c2ccc(C#N)c(F)c2)nc1)CC(O)c1ccc2oc(=O)n(C)c2c1` (single isomer, unassigned) [Example 24-I, 2-fluoro-4-(5-(((2-hydroxy-2-(3-methyl-2-oxo-2,3-dihydrobenzo[d]oxazol-5-yl)ethyl)(methyl)amino)methyl)pyridin-2-yl)benzonitrile] yielded an IC50 of 2.4 µM. Compound `Cc1cc(-n2cc(CNC[C@H](NS(=O)(=O)C3CC3)c3ccc4c(c3C)COC4=O)cn2)ncc1C#N` [Example 62, (R)-N-(2-(((1-(5-cyano-4-methylpyridin-2-yl)-1H-pyrazol-4-yl)methyl)amino)-1-(4-methyl-1-oxo-1,3-dihydroisobenzofuran-5-yl)ethyl)cyclopropanesulfon-amide] has an IC50 of 0.39 µM.

These compounds were tested against hERG channels (Homo sapiens (Human), UniProt Q12809) (assay: hERG Manual Patch Clamp Assay (HEK 293 cells stably expressing hERG channels)). Settings: human, HEK 293 cells stably expressing hERG channels, pH 7.4.
hERG channels, sequence (Q12809 whole entry): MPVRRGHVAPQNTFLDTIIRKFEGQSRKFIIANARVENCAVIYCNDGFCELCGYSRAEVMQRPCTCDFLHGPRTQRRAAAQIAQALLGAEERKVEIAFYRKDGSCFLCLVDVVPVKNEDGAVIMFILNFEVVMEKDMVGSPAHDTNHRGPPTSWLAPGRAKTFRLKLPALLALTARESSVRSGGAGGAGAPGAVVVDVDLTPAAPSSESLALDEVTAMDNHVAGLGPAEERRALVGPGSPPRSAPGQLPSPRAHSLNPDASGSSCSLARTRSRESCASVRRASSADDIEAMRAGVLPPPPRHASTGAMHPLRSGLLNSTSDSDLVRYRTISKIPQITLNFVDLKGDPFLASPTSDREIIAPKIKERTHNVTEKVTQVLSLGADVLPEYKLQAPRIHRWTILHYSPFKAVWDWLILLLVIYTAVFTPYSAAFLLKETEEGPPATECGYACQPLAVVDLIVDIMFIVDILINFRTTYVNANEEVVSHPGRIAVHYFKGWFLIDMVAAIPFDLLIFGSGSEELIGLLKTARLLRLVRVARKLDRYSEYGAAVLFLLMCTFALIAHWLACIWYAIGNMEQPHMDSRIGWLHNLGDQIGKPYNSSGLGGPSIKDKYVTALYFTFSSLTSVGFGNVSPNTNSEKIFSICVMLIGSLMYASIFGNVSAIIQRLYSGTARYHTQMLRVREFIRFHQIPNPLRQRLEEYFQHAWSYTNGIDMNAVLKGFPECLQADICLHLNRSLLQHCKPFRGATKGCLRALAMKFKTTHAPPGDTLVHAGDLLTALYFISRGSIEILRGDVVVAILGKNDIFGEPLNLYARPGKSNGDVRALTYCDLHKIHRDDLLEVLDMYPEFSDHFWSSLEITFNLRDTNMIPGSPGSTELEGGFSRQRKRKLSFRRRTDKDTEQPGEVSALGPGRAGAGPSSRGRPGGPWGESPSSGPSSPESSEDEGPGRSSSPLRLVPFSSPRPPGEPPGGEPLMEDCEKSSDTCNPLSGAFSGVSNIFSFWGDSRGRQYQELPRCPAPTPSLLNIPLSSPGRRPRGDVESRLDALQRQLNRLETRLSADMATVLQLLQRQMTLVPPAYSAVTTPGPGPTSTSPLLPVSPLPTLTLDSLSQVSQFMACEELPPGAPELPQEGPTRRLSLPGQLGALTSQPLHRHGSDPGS
Format: cell-based
With `Cc1cc(-c2ccc(CNCC(O)c3ccc4c(c3C)COC4=O)cn2)ncc1C#N` (single isomer, unassigned) [Example 4-I, 5′-(((2-hydroxy-2-(4-methyl-1-oxo-1,3-dihydroisobenzofuran-5-yl)ethyl)amino)methyl)-4-methyl-[2,2′-bipyridine]-5-carbonitrile] the inhibition at 1 µM was 22%. `Cc1c(C(O)CN(C)Cc2ccc(-c3ccc(C#N)c(F)c3)nc2)ccc2c1COC2=O` (single isomer, unassigned) [Example 21-I, 2-fluoro-4-(5-(((2-hydroxy-2-(4-methyl-1-oxo-1,3-dihydroisobenzofuran-5-yl)ethyl)(methyl)amino)methyl)pyridin-2-yl)benzonitrile] was tested, and the inhibition at 1 µM was 68%. For `Cc1c([C@@H](O)CNCc2ccc(-n3cc(C#N)c(C4CC4)n3)nc2)ccc2c1COC2=O` [Example 116, (R)-3-cyclopropyl-1-(5-(((2-hydroxy-2-(4-methyl-1-oxo-1,3-dihydroisobenzofuran-5-yl)ethyl)amino)methyl)pyridin-2-yl)-1H-pyrazole-4-carbonitrile], the inhibition at 1 µM was 76%.
